Reference: patent US5081113A, “Novel 3-keto-steroids” (Roussel Uclaf, priority 1989, dated 1992)
Like-named read-outs stand apart in the source and are kept apart here.

Tests used:
[1] = system: lipid peroxidation (MDA formation) in brain homogenates; test: Test of formation of malondialdehyde (MDA), non-enzymatic lipid peroxidation triggered by ferrous sulfate in brain homogenates; type: biochemical, S-D rats; settings: brain homogenate, 60 minutes at 37° C.
Description: 1.1 MDA formation was measured on 10-fold diluted (V/V) homogenates of brains of S-D rats (200 g) prepared in Krebs buffer pH 7.4 under the conditions described in J. Biol. Chem., Vol. 262 (1987), p. 10438 to 10440. 1 ml of homogenate was incubated for 60 minutes at 37° C. in the presence of 25 microliters of ethanol or water or a mixture of the two depending on the product containing or not containing the test product, after the addition of 25 microliters of ferrous sulfate solution prepared immediately before use in water outgassed with argon (200 micromoles final). 0.25 ml of incubated mixture were withdrawn and 1.5 ml of 1% strength phosphoric acid, 0.25 ml of a solution containing 200 micromoles of deferoxamine (Desferal^.phi., Ciba Geigy) in water, 10 microliters of butylated hydroxy-toluene (BHT) at a concentration of 8.7 mg/ml in ethanol and 0.5 ml of thiobarbituric acid (TBA) at a concentration of 0.6% in water were added. The mixture was heated to 100° C. for 45 minutes and cooled. 4 ml of n-butanol were added and the mixture was centrifuged for 15 minutes at 4000 rpm and the OD of the supernatant fraction was then read at 535 nm. The reaction blanks in the absence of Fe^++ were incubated under the same conditions.

[2] = system: lipid peroxidation (MDA formation) in rat liver microsomes; settings: liver microsomes of phenobarbital-pretreated rats, NADPH/carbon tetrachloride, pH 7.4, 15 minutes at 37° C.
[3] = system: lipid peroxidation (MDA formation) in rat liver microsomes; test: Test of formation of malondialdehyde (MDA), non-enzymatic lipid peroxidation triggered by ferrous sulfate in rat liver microsomes; type: biochemical, S-D rats; settings: ferrous sulfate/ascorbate, pH 7.4, 15 minutes at 37° C.
Description: The reaction was stopped by adding 2 ml of a 1M solution of trichloroacetic acid in 0.25M hydrochloric acid containing 0.4% of thiobarbituric acid. The mixture was heated to 85° C. for 25 minutes, cooled and centrifuged for 15 minutes at 3500 rpm, and the OD of the supernatant fraction was then read at 535 nm. The reaction blanks in the absence of Fe^++ were performed at the same time. The percentage inhibition was calculated as above.

| SMILES | percentage inhibition (MDA formation) ([1]; 1 * 10^-4 M) [%] | percentage inhibition (MDA formation) ([1]; 1 * 10^-5 M) [%] | percentage inhibition (MDA formation) ([1]; 5 * 10^-4 M) [%] | percentage inhibition (MDA formation) ([2]; 1*10^-5 M) [%] | percentage inhibition (MDA formation) ([2]; 1*10^-6 M) [%] | percentage inhibition (MDA formation) ([2]; 5*10^-6 M) [%] | percentage inhibition (MDA formation) ([3]; 1*10^-5 M) [%] | percentage inhibition (MDA formation) ([3]; 1*10^-6 M) [%] | percentage inhibition (MDA formation) ([3]; 5*10^-5 M) [%] | percentage inhibition (MDA formation) ([3]; 5*10^-6 M) [%] |
| --- | --- | --- | --- | --- | --- | --- | --- | --- | --- | --- |
| C[C@]12CCC(=O)C=C1C=C[C@@H]1[C@@H]2[C@@H](O)C[C@@]2(C)[C@H]1CC[C@@]2(O)C#CCN1CCN(c2cc(N3CCCC3)nc(N3CCCC3)n2)CC1 [Example 1, 17α-[3-{4-[(2,6-bis(1-pyrrolidinyl)-4-pyrimidinyl]-1-piperazinyl}-1-propynyl]-Δ^4,6-androstadien-11β,17β-diol-3-one methanesulfonate] | 9.8 ± 11.2 | -10.6 ± 9.0 | 60.8 ± 3.0 | 86 ± 2 | 16 ± 1 | 75 ± 4 | 46 ± 3 | 0 ± 18 | 97.5 ± 0.5 | 19.5 ± 6 |
| CC1=C[C@@H]2[C@H]([C@@H](O)C[C@@]3(C)[C@H]2CC[C@@]3(O)C#CCN2CCN(c3cc(N4CCCC4)nc(N4CCCC4)n3)CC2)[C@@]2(C)C=CC(=O)C=C12 [Example 2] | 26.6 ± 3.9 | 28.0 ± 4.1 | 53.1 ± 7.8 | 80 ± 1 | 22 ± 1.5 | 61 ± 1.5 | 11.3 ± 2 | 0 ± 2 | 85 ± 1.5 | 0 ± 3 |
| CCN(CC)c1ccc(N2CCN(CC#C[C@]3(O)CC[C@H]4[C@@H]5C=C(C)C6=CC(=O)C=C[C@]6(C)[C@H]5[C@@H](O)C[C@@]43C)CC2)nc1N(CC)CC [Example 3, 17α-[3-{4-[5,6-bis(diethylamino)-2-pyridyl]-1-piperazinyl}-1-propynyl]-6-methyl-Δ^1,4,6-androstatrien-11β,17β-diol-3-one] | 62.9 ± 4.5 | 51.3 ± 13.7 | 64.2 ± 10 | 93 | 48 ± 2 | 89 ± 2 | 95.5 | 55 ± 9 | – | 99.5 |
| CCN(CC)c1ccc(N(CC)CC)c(N2CCN(CC#C[C@]3(O)CC[C@H]4[C@@H]5C=C(C)C6=CC(=O)C=C[C@]6(C)[C@H]5[C@@H](O)C[C@@]43C)CC2)n1 [Example 4, 17α-[3-{4-[3,6-bis(diethylamino)-2-pyridyl]-1-piperazinyl}-1-propynyl]-6-methyl-Δ^1,4,6-androstatrien-11β,17β-diol-3-one] | 51.0 ± 12.4 | 48.5 ± 13.1 | 65.4 ± 10.1 | 91 ± 2 | 49 ± 2 | 85 | 100 | 51 ± 3 | – | 99.5 |
